Results: patent US20260159497A1, “SOLID FORMS OF A COMPLEMENT FACTOR B INHIBITOR” (Novartis Pharma AG, priority 2022, published 2026)

Assay: Dynamic vapor sorption (DVS) mass change
Format: physicochemical
Conditions: for Mass change by DVS, Sorption (%) / Mass change by DVS, Desorption (%): Table 5, 25 degree C., based on dry weight; for Mass change by DVS, 1st Desorption (%) / Mass change by DVS, 1st Sorption (%) / Mass change by DVS, 2nd Desorption (%) / Mass change by DVS, 2nd Sorption (%): Table 6
Excerpt: [table] The mass change by DVS isotherm (2 cycles 40-0-95-0-40% RH) are in the tables below. The mass change is based on the dry weight of each.

SMILES: COc1cc(C)c2[nH]ccc2c1CN1CCC2(C[C@H]1c1ccc(C(=O)O)cc1)CC(F)(F)C2.Cc1ccc(S(=O)(=O)O)cc1 [Form B, (S)-4-(2,2-difluoro-7-((5-methoxy-7-methyl-1H-indol-4-yl)methyl)-7-azaspiro[3.5]nonan-6-yl)benzoic acid p-toluene sulfonate]
- Mass change by DVS, Sorption (%) (70% RH): 2.38%
- Mass change by DVS, Desorption (%) (80% RH): 2.46%
- Mass change by DVS, Sorption (%) (80% RH): 2.45%
- Mass change by DVS, Desorption (%) (90% RH): 2.54%
- Mass change by DVS, Sorption (%) (90% RH): 2.54%
- Mass change by DVS, Desorption (%) (95% RH): 2.62%
- Mass change by DVS, Sorption (%) (95% RH): 2.62%
- Mass change by DVS, 1st Desorption (%) (DVS at 25 degree C., 0% RH): 0.00%
- Mass change by DVS, 1st Sorption (%) (DVS at 25 degree C., 0% RH): 0.00%
- Mass change by DVS, 2nd Desorption (%) (DVS at 25 degree C., 0% RH): −0.01%
- Mass change by DVS, 2nd Sorption (%) (DVS at 25 degree C., 0% RH): −0.01%
- Mass change by DVS, 1st Desorption (%) (DVS at 25 degree C., 10% RH): 1.13%
- Mass change by DVS, 1st Sorption (%) (DVS at 25 degree C., 10% RH): 1.11%
- Mass change by DVS, 2nd Desorption (%) (DVS at 25 degree C., 10% RH): 1.13%
- Mass change by DVS, 2nd Sorption (%) (DVS at 25 degree C., 10% RH): 1.11%
- Mass change by DVS, 1st Desorption (%) (DVS at 25 degree C., 20% RH): 1.70%
- Mass change by DVS, 1st Sorption (%) (DVS at 25 degree C., 20% RH): 1.69%
- Mass change by DVS, 2nd Desorption (%) (DVS at 25 degree C., 20% RH): 1.70%
- Mass change by DVS, 2nd Sorption (%) (DVS at 25 degree C., 20% RH): 1.68%
- Mass change by DVS, 1st Desorption (%) (DVS at 25 degree C., 30% RH): 1.98%
- Mass change by DVS, 1st Sorption (%) (DVS at 25 degree C., 30% RH): 1.97%
- Mass change by DVS, 2nd Desorption (%) (DVS at 25 degree C., 30% RH): 1.98%
- Mass change by DVS, 2nd Sorption (%) (DVS at 25 degree C., 30% RH): 1.97%
- Mass change by DVS, 1st Desorption (%) (DVS at 25 degree C., 40% RH): 2.16%
- Mass change by DVS, 1st Sorption (%) (DVS at 25 degree C., 40% RH): 2.15%
- Mass change by DVS, 2nd Desorption (%) (DVS at 25 degree C., 40% RH): 2.16%
- Mass change by DVS, 2nd Sorption (%) (DVS at 25 degree C., 40% RH): 2.15%
- Mass change by DVS, 1st Sorption (%) (DVS at 25 degree C., 50% RH): 2.28%
- Mass change by DVS, 2nd Desorption (%) (DVS at 25 degree C., 50% RH): 2.29%
- Mass change by DVS, 1st Sorption (%) (DVS at 25 degree C., 60% RH): 2.37%
- Mass change by DVS, 2nd Desorption (%) (DVS at 25 degree C., 60% RH): 2.38%
- Mass change by DVS, 1st Sorption (%) (DVS at 25 degree C., 70% RH): 2.45%
- Mass change by DVS, 2nd Desorption (%) (DVS at 25 degree C., 70% RH): 2.47%
- Mass change by DVS, 1st Sorption (%) (DVS at 25 degree C., 80% RH): 2.53%
- Mass change by DVS, 2nd Desorption (%) (DVS at 25 degree C., 80% RH): 2.54%
- Mass change by DVS, 1st Sorption (%) (DVS at 25 degree C., 90% RH): 2.60%
- Mass change by DVS, 2nd Desorption (%) (DVS at 25 degree C., 90% RH): 2.61%
- Mass change by DVS, 1st Sorption (%) (DVS at 25 degree C., 95% RH): 2.67%
- Mass change by DVS, 2nd Desorption (%) (DVS at 25 degree C., 95% RH): 2.67%
- Mass change by DVS, 1st Desorption (%) (DVS at 40 degree C., 0% RH): 0.00%
- Mass change by DVS, 1st Sorption (%) (DVS at 40 degree C., 0% RH): 0.00%
- Mass change by DVS, 2nd Desorption (%) (DVS at 40 degree C., 0% RH): −0.01%
- Mass change by DVS, 2nd Sorption (%) (DVS at 40 degree C., 0% RH): −0.01%
- Mass change by DVS, 1st Desorption (%) (DVS at 40 degree C., 10% RH): 0.97%
- Mass change by DVS, 1st Sorption (%) (DVS at 40 degree C., 10% RH): 0.96%
- Mass change by DVS, 2nd Desorption (%) (DVS at 40 degree C., 10% RH): 0.97%
- Mass change by DVS, 2nd Sorption (%) (DVS at 40 degree C., 10% RH): 0.95%
- Mass change by DVS, 1st Desorption (%) (DVS at 40 degree C., 20% RH): 1.61%
- Mass change by DVS, 1st Sorption (%) (DVS at 40 degree C., 20% RH): 1.59%
- Mass change by DVS, 2nd Desorption (%) (DVS at 40 degree C., 20% RH): 1.60%
- Mass change by DVS, 2nd Sorption (%) (DVS at 40 degree C., 20% RH): 1.59%
- Mass change by DVS, 1st Desorption (%) (DVS at 40 degree C., 30% RH): 1.92%
- Mass change by DVS, 1st Sorption (%) (DVS at 40 degree C., 30% RH): 1.90%
- Mass change by DVS, 2nd Desorption (%) (DVS at 40 degree C., 30% RH): 1.91%
- Mass change by DVS, 2nd Sorption (%) (DVS at 40 degree C., 30% RH): 1.90%
- Mass change by DVS, 1st Desorption (%) (DVS at 40 degree C., 40% RH): 2.10%
- Mass change by DVS, 1st Sorption (%) (DVS at 40 degree C., 40% RH): 2.09%
- Mass change by DVS, 2nd Desorption (%) (DVS at 40 degree C., 40% RH): 2.09%
- Mass change by DVS, 2nd Sorption (%) (DVS at 40 degree C., 40% RH): 2.09%
- Mass change by DVS, 1st Sorption (%) (DVS at 40 degree C., 50% RH): 2.21%
- Mass change by DVS, 2nd Desorption (%) (DVS at 40 degree C., 50% RH): 2.22%
- Mass change by DVS, 1st Sorption (%) (DVS at 40 degree C., 60% RH): 2.28%
- Mass change by DVS, 2nd Desorption (%) (DVS at 40 degree C., 60% RH): 2.29%
- Mass change by DVS, 1st Sorption (%) (DVS at 40 degree C., 70% RH): 2.34%
- Mass change by DVS, 2nd Desorption (%) (DVS at 40 degree C., 70% RH): 2.37%
- Mass change by DVS, 1st Sorption (%) (DVS at 40 degree C., 80% RH): 2.40%
- Mass change by DVS, 2nd Desorption (%) (DVS at 40 degree C., 80% RH): 2.44%
- Mass change by DVS, 1st Sorption (%) (DVS at 40 degree C., 90% RH): 2.49%
- Mass change by DVS, 2nd Desorption (%) (DVS at 40 degree C., 90% RH): 2.49%
- Mass change by DVS, 1st Sorption (%) (DVS at 40 degree C., 95% RH): 2.52%
- Mass change by DVS, 2nd Desorption (%) (DVS at 40 degree C., 95% RH): 2.52%
